Assay results from patent publication US20140116103A1, “FOLIARLY APPLICABLE SILICON NUTRITION COMPOSITIONS & METHODS” (priority 2008, published 2014).

Experiments:
[1] = system: Bipolaris oryzae; assay type: in vivo, Bipolaris oryzae on rice; settings: A, B, C, F compared to control, D compared to A
[2] = generally accepted limit; cited from earlier work

Row | Compound | necrotic lesions on leaves (number and size) [1] | limit of solubility in water [2]
1 | CC1COC(Cn2cncn2)(c2ccc(Oc3ccc(Cl)cc3)cc2Cl)O1 (centres unmarked) [Composition F, diphenoconazole] | complete absence of lesions | 
2 | O[Si](O)(O)O [monosilicic acid] |  | about 2 mM
